Source: ChEMBL document CHEMBL1201862, “PubChem BioAssay data set” (2004)
Activity calls are given as the source filed them.

Columns and labels:
[1] = Luminescence Cell-Based Dose Confirmation to Identify Activators of 5'UTR Stem-Loop Driven Alpha-Synuclein mRNA Translation in H4 Neuroglioblastoma Cells. [Related pubchem assays: 1829 (Project Summary), 1814 (Primary HTS)]; type: functional
[2] = Luminescence Cell-Based Dose Response to Identify Activators of 5'UTR Stem-Loop Driven Prion Protein mRNA Translation in H4-C Neuroglioblastoma Cells. [Related pubchem assays: 1829 (Project Summary), 1814 (Primary HTS)]; type: functional
[3] = Luminescence Cell-Based Dose Response HTS to Identify Activators of Luciferase Translation or Activity in H4 […] Cells. [Related pubchem assays: 1829 (Project Summary), 1814 (Primary HTS)]; type: functional
[4] = Luminescence Cell-Based Dose Response to Identify Activators of Luciferase Translation or Activity in H4-C Neuroglioblastoma Cells. [Related pubchem assays: 1829 (Project Summary), 1814 (Primary HTS)]; type: functional
H4 = assay: Luminescence Cell-Based Dose Response HTS to Identify Activators of 5'UTR Stem-Loop Driven Prion Protein mRNA Translation in H4 Neuroglioblastoma Cells. [Related pubchem assays: 1829 (Project Summary), 1814 (Primary HTS)]; type: functional; settings: Homo sapiens
[5] = Luminescence Cell-Based Dose Confirmation HTS to Identify Activators of 5'UTR Stem-Loop Driven Alpha-Synuclein mRNA Translation in H4 Neuroglioblastoma Cells. [Related pubchem assays: 1829 (Project Summary), 1814 (Primary HTS)]; type: functional
[6] = M. tuberculosis H37Rv growth inhibitors, H37Rv strain (AID 1626); type: functional
Paired box protein Pax-8 = Paired box protein Pax-8 (Homo sapiens, UniProt Q06710); assay: inhibitors of PAX8-driven TPO luciferase reporter, dose response, RMG-I cells, cherry-pick (AID 687027); type: functional, cell-based;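 also: luciferase reporter driven by Pax8 target thyroperoxidase promoter measured by SteadyGlo luminescence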
[7] = biological target: NAD-dependent protein deacylase sirtuin-5, mitochondrial (Homo sapiens, UniProt Q9NXA8); assay: SIRT5 desuccinylase inhibitors, dose response, biochemical, fluorescence imaging, cherry-pick, set 5 (AID 720591);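 also: desuccinylation of succinyl peptide AMC substrate read as fluorescence after trypsin release; potency of inhibitors that lower fluorescence and may act on trypsin instead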
Protein Wnt-3a = Protein Wnt-3a (Mus musculus, UniProt P27467); assay: Wnt3a-driven reporter signaling inhibition, dose response, selectivity assay for Gli-SUFU antagonist project, Wnt-LIGHT cells, luminescence (AID 651570); type: functional; settings: read-out: IC50_Mean;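 also: Wnt-LIGHT reporter cells stimulated with conditioned medium from Wnt3a-producing cells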
[8] = P. falciparum 3D7-ScDHODH growth inhibitors, dose response, SYBR Green, dry powder samples (AID 1159570); type: functional, cell-based;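 also: parasite growth measured after 72 hours of compound exposure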
[9] = P. falciparum ATP4 D1247Y mutant growth inhibitors, dose response, NITD609-resistant line, SYBR Green, dry powder (AID 1159571); type: functional, cell-based;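 also: parasites synchronized at ring stage by sorbitol before testing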
[10] = HepG2 cell cytotoxicity, dose response, cytotoxicity control, cherry-picked samples (AID 1159577); type: functional, cell-based
[11] = P. falciparum Dd2 growth inhibitors, dose response, SYBR Green, cherry-picked samples (AID 1159567); type: functional, cell-based
[12] = P. falciparum Dd2 growth inhibitors, dose response, SYBR Green, dry powder samples (AID 1159566); type: functional, cell-based;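 also: potency for growth inhibition with lower SYBR green DNA signal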
[13] = HepG2 cell cytotoxicity, dose response, cytotoxicity control, plate reader, dry powder samples (AID 1159569); type: functional, cell-based;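 also: inhibitor potency with signal falling toward the positive control level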
[14] = biological target: Voltage-dependent T-type calcium channel subunit alpha-1H (Homo sapiens, UniProt O95180); type: functional;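 also: channel activity triggered by adding a high calcium stimulation buffer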
[15] = biological target: T1, Rac GTPase-activating protein 1 (Homo sapiens, UniProt Q9H0H5); assay: MgcRacGAP GTPase-activating activity inhibitors, confirmation, biochemical, ADP Hunter fluorescence, primary and confirmatory (AID 624330); type: functional
T1 sequence (Q9H0H5 whole entry): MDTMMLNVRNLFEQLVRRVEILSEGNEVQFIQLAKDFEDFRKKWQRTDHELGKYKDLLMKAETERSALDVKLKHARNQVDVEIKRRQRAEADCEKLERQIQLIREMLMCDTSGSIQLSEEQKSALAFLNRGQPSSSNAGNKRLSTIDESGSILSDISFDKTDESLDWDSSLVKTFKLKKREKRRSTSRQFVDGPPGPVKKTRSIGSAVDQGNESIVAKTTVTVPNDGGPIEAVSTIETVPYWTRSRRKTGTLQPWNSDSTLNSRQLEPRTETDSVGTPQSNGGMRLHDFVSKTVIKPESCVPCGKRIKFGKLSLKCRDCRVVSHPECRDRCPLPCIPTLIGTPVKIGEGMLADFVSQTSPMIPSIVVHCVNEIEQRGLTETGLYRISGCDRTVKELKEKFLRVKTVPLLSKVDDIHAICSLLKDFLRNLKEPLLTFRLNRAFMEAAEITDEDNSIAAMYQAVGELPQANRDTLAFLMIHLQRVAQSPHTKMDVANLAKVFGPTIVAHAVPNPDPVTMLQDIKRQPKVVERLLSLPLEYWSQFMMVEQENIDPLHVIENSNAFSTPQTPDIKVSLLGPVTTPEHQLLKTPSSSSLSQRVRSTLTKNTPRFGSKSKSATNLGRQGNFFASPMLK

[16] = biological target: T2, Calpain-2 catalytic subunit (Sus scrofa, UniProt P43367); assay: pig calpain II inhibitor potency, dose response, biochemical, fluorogenic peptide substrate (AID 1420); type: functional
T2 sequence (P43367 whole entry): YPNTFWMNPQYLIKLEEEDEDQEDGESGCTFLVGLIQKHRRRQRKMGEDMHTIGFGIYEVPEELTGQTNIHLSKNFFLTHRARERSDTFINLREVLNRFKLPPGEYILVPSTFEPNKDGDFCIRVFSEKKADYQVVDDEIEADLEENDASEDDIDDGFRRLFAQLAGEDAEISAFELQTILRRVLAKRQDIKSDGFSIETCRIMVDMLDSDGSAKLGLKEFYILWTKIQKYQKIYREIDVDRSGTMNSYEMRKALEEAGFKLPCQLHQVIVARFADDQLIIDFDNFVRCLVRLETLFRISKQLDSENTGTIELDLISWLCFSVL

[17] = biological target: E3 ubiquitin-protein ligase Mdm2 (Homo sapiens, UniProt Q00987); assay: enhancers of MDM2-luciferase reporter signal, concentration-effect titration, project on inhibitors of MDM2 ubiquitin ligase, cellular assay, luminescent readout, 384-well plate format (AID 1394); type: functional;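 also: MDM2 E3 inhibitors raise luminescence so EC50 is for signal enhancement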
Streptokinase A = biological target: T3, Streptokinase A (Streptococcus pyogenes serotype M1, UniProt P10520); assay: S. pyogenes streptokinase expression inhibitors, potency, dose response, plasminogen activation absorbance, OD405 (AID 1914); type: functional, Streptococcus pyogenes M1 GAS;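 also: secreted streptokinase activity via plasminogen activation per viability signal from cell pellet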
T3 sequence (P10520 whole entry): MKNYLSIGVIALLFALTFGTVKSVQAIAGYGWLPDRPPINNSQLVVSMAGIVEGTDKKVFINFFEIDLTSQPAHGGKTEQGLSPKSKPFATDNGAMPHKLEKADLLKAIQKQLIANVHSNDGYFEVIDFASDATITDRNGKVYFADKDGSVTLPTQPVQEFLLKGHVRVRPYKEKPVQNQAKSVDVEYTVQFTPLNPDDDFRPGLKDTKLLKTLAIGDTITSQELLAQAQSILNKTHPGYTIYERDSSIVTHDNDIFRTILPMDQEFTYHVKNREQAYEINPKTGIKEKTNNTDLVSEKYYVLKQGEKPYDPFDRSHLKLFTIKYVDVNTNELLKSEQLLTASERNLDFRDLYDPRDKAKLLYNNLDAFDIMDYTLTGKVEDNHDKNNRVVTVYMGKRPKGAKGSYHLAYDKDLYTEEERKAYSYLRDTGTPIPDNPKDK

[18] = tested on: Streptococcus sp. 'group A'; assay: growth inhibition of control SK(-) GAS strain, dose response, counter-screen for streptokinase expression inhibitor project, luminescence, kanamycin, BacTiterGlo, confirmation (AID 1900); type: functional, organism-based
Streptococcus = assay: Group A Streptococcus viability loss, dose response, counter-screen for streptokinase expression inhibitor project, luminescence, BacTiterGlo (AID 1915); type: functional, organism-based;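 also: potency for reduction of bacterial viability or growth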
[19] = microbe, parasite or virus in culture; type: functional; settings: Mycobacterium tuberculosis

NAD-dependent protein deacylase sirtuin-5, mitochondrial, sequence (Q9NXA8 whole entry): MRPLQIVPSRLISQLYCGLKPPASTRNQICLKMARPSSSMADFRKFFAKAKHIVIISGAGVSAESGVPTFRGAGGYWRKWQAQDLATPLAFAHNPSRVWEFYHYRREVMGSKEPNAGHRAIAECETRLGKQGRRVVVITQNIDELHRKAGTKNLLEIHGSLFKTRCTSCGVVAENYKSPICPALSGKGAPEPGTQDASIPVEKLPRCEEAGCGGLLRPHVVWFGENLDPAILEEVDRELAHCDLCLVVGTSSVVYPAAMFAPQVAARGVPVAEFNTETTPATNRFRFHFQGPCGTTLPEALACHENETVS
Voltage-dependent T-type calcium channel subunit alpha-1H, sequence (O95180 whole entry): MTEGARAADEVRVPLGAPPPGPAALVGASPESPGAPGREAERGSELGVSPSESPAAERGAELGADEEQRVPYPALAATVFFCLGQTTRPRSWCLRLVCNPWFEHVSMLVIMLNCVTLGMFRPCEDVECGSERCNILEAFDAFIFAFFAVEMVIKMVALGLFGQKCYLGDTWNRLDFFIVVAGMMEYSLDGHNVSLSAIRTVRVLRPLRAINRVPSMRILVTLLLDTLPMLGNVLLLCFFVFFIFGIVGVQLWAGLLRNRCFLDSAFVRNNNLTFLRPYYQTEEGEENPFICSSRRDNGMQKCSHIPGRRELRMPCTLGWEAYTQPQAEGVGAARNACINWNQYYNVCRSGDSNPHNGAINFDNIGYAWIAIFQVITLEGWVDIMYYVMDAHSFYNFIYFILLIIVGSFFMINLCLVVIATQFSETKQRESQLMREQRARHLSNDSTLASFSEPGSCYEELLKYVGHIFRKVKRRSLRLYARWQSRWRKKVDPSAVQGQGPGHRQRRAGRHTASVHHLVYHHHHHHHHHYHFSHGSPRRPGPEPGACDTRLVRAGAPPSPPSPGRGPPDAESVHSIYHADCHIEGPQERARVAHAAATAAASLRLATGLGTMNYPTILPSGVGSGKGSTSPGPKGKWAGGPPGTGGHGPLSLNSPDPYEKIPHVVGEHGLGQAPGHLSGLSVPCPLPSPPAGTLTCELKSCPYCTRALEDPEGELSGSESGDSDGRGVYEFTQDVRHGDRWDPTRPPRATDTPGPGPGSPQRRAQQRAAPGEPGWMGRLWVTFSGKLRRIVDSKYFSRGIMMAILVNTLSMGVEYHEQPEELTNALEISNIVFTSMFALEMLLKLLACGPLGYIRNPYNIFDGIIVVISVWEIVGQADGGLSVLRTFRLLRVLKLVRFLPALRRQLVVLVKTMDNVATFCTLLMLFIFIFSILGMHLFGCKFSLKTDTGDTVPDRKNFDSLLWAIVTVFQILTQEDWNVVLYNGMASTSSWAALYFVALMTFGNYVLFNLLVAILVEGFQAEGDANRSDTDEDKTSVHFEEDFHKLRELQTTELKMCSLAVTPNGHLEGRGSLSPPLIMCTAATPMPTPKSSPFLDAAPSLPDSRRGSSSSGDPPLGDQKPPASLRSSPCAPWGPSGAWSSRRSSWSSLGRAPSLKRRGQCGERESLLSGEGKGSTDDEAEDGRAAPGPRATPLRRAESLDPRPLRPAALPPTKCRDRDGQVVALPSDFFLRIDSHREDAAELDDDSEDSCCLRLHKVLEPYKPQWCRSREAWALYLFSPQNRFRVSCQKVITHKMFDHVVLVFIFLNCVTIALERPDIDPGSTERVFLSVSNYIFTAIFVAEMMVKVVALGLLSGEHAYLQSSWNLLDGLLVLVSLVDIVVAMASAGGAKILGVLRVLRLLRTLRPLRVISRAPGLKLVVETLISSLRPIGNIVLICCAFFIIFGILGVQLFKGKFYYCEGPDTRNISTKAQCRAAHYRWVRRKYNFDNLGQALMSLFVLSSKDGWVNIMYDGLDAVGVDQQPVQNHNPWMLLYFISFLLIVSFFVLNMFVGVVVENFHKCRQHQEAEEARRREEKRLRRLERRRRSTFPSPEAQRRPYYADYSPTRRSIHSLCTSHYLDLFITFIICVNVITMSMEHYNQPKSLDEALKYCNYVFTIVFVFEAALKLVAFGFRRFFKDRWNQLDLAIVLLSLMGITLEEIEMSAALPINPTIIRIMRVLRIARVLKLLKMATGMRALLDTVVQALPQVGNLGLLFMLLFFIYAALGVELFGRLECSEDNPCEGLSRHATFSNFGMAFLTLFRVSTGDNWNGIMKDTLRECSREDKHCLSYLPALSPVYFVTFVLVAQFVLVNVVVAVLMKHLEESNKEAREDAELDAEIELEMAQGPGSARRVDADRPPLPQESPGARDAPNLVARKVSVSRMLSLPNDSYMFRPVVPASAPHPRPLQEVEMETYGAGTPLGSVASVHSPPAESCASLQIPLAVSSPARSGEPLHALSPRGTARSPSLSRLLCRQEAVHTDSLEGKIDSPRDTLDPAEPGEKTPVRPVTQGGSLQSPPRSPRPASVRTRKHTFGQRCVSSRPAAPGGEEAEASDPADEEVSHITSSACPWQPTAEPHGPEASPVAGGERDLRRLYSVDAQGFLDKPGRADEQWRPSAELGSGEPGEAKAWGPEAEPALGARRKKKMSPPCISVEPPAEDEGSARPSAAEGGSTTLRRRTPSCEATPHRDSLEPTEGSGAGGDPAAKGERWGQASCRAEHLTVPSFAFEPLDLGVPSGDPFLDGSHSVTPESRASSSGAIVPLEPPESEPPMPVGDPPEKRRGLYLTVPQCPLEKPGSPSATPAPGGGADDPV
Protein Wnt-3a, sequence (P27467 whole entry): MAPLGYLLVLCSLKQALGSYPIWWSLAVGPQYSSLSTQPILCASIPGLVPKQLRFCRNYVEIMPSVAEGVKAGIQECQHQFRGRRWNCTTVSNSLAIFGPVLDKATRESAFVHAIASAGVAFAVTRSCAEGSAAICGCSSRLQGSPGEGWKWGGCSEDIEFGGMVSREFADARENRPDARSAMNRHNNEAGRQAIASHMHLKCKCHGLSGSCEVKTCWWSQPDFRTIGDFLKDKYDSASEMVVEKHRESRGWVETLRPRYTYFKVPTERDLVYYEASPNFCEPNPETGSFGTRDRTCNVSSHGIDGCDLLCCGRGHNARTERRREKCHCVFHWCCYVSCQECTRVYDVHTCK
E3 ubiquitin-protein ligase Mdm2, sequence (Q00987 whole entry): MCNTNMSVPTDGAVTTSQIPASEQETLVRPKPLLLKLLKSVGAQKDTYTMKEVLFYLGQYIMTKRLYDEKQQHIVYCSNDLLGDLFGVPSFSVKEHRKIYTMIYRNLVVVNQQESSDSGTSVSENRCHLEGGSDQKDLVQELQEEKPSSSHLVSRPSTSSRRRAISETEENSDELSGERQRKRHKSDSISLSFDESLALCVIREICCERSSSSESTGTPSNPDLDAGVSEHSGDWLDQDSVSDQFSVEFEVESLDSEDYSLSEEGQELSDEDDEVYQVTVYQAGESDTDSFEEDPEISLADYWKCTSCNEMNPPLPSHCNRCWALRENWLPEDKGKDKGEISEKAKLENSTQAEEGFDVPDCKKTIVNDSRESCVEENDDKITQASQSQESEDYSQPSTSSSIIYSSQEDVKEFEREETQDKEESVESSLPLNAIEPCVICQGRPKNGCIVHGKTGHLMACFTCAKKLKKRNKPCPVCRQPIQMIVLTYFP
Paired box protein Pax-8, sequence (Q06710 whole entry): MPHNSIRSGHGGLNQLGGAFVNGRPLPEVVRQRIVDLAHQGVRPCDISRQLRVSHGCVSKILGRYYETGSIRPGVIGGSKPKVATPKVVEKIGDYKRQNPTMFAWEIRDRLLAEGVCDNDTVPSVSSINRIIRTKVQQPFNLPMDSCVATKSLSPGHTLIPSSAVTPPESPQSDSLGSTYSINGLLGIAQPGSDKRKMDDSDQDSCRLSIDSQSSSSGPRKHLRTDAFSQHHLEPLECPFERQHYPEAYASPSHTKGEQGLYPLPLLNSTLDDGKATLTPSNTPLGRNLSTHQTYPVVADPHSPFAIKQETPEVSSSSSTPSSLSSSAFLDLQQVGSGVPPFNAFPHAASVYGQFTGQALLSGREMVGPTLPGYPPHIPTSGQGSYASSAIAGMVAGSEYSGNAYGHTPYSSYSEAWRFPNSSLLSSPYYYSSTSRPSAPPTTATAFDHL

**Q.** Which EC50 [1] does the source give for `O=C(c1cc(COc2ccc(F)cc2Cl)on1)N1CCSCC1` here?
**A.** 0.63 µM (active)

**Q.** What about the EC50 [2] of the same compound?
**A.** > 12 µM (not active)

**Q.** And the EC50 [3]?
**A.** 4 µM (active)

**Q.** What about the EC50 [4] of the same compound?
**A.** > 12 µM (not active)

**Q.** What about the EC50 (H4) of the same compound?
**A.** 0.1 µM (active)

**Q.** What about the EC50 [5] of the same compound?
**A.** 0.787 µM (active)

**Q.** For `COc1ccc(N2Cc3ccccc3C2)cc1Cl`, which IC50 [6] is on record?
**A.** > 100 µM (active)

**Q.** For `C=C1C2(C(=O)Nc3ccc(SC(F)F)cc3)CCC(C2)C1(C)C` (stereo not given), which AC50 (Paired box protein Pax-8) is on record?
**A.** 62.8 µM (active)

**Q.** What about the IC50 [6] of the same compound?
**A.** > 100 µM (active)

**Q.** With `CCOC(=O)N1CCN(C(=O)c2cc(COc3ccc4ncccc4c3)on2)CC1` as the compound, how does the AC50 [7] read?
**A.** > 30 µM (inactive)

**Q.** And the IC50 (Protein Wnt-3a)?
**A.** 0.555 µM (active)

**Q.** For `CCCc1cn(CC[C@H]2CC[C@@H](NS(=O)(=O)c3ccc(-c4ccccc4)cc3)[C@@H](CO)O2)nn1`, which AC50 [8] is on record?
**A.** 0.963 µM (active)

**Q.** What about the AC50 [9] of the same compound?
**A.** 0.833 µM (active)

**Q.** What about the AC50 [10] of the same compound?
**A.** > 39 µM (inactive)

**Q.** What about the AC50 [11] of the same compound?
**A.** 0.689 µM (active)

**Q.** And the AC50 [12]?
**A.** 0.914 µM (active)

**Q.** And the AC50 [13]?
**A.** 47.4 µM (active)

**Q.** With `COc1ccc(C#Cc2ccc([C@@H]3[C@@H](CO)N4CCCCN(Cc5ccccc5F)C[C@H]34)cc2)cc1` as the compound, how does the AC50 [10] read?
**A.** 7.91 µM (active)

**Q.** What about the AC50 [11] of the same compound?
**A.** 0.807 µM (active)

**Q.** Which EC50 [14] does the source give for `CCCOc1ccccc1Cn1c(=O)oc2ccc(C)cc21` here?
**A.** 10.6 µM (active)

**Q.** For `COc1ccccc1-c1c[nH]nc1-c1ccc(O)cc1O`, which IC50 [15] is on record?
**A.** 42.4 µM (active)

**Q.** And the AC50 [7]?
**A.** 21.6 µM (active)

**Q.** Which IC50 [16] does the source give for `O=C(Nc1cccnc1)c1cc2cc(Br)ccc2oc1=O` here?
**A.** 17.6 µM (not active)

**Q.** And the IC50 [6]?
**A.** > 100 µM (active)

**Q.** Which EC50 [1] does the source give for `c1ccc(-n2ncc3c(N4CCC5(CC4)OCCO5)ncnc32)cc1` here?
**A.** 0.247 µM (active)

**Q.** And the EC50 [2]?
**A.** 1.1 µM (active)

**Q.** And the EC50 [3]?
**A.** < 0.1 µM (active)

**Q.** What about the EC50 [4] of the same compound?
**A.** 0.364 µM (active)

**Q.** And the EC50 (H4)?
**A.** > 120 µM (not active)

**Q.** With `CC1(C)CC2=Nc3nc(SCCN4CCOCC4)nc(O)c3C(c3cccs3)C2=C(O)C1` (stereo not given) as the compound, how does the EC50 [17] read?
**A.** 47.7 µM (not active)

**Q.** With `O=C(OCc1ccccc1)c1cccc(-c2nnn(Cc3ccccc3)n2)c1` as the compound, how does the EC50 (Streptokinase A) read?
**A.** 26 µM (inconclusive)

**Q.** What about the EC50 [18] of the same compound?
**A.** > 150 µM (not active)

**Q.** And the EC50 (Streptococcus)?
**A.** > 150 µM (not active)

**Q.** And the EC50 [14]?
**A.** 9.03 µM (active)

**Q.** What about the CC50 [19] of the same compound?
**A.** > 40 µM (active)
